Marks after values point to notes of the source that are not given here.
What was measured:
p53 Y220C [1] = molecular target: T1, p53 Y220C (Homo sapiens, UniProt P04637, P309S/R273H/Y220C); assay: DNA binding test (HTRF): binding of P53Y220C protein to DNA; assay type: biochemical; settings: HTRF, activation of p53 Y220C (aa 94-312) binding to biotin DNA
T1 construct: a truncated mutant containing only amino acids 94-312 of p53; made in house; host or cells: E. coli
Method: (§1) In order to detect the ability of the aforementioned compounds to increase the binding of P53Y220C protein to DNA, the binding activity of p53 Y220C was measured by homogeneous time-resolved fluorescence (HTRF). Recombinant His-tagged p53 Y220C for HTRF measurement was expressed in bacteria E. coli. The recombinant protein was a truncated mutant containing only amino acids 94-312 of p53, and its sequence was […] […] VEGNLR […] TFRh[…] […]. The sense strand of the DNA double strand was 5′-[…]-3′, with a biotin tag at the 5′ end for activity assay, and the antisense strand was 5′-[…]-3′ 40 mL of assay buffer (20 mM Tris HCL, pH 7.5, 50 mM NaCl, 2 mM MgCl2, 0.02% Tween 20, 0.01% BSA, 1 mM DTT) was prepared. 10 mM compound was prepared and subjected to 3-fold dilution to obtain 10 dose gradient dilutions of the compound. 20 nL of the compound was added to a 384-well assay plate (PerkinElmer 6007299) using an Echo 655 Liquid Handler. P53Y220C protein was dissolved in assay buffer to reach a final concentration of 150 nM, and 5 μL thereof was added to each well, and incubated at room temperature for 5 min. DNA was dissolved in assay buffer to reach a final concentration of 150 nM, and 5 μL thereof was added to each well, and incubated at room temperature for 15 min. Anti 6HIS-XL665 (Cisbio 61HISXLB) was dissolved in assay buffer to reach a final concentration of 20 nM, and 5 μL thereof was added to each well. Streptavidin-Eu cryptate (Cisbio 610SAKLA) was dissolved in assay buffer to reach a final concentration of 0.625 nM, and 5 μL thereof was added to each well, and incubated at 27° C. for 1 hour. The plate was then read for signal values on an Envision (PerkinElmer 2105-0020) plate reader at 665 nm and 615 nm, respectively. […] Activation rate={(A-C)/(C)}*100%, A=(signal value at 665 nm/signal value at 615 nm); C=average signal of negative control (wherein, negative control referred to 0.1% DMSO).

p53 Y220C [2] = molecular target: T2, p53 Y220C (Homo sapiens, UniProt P04637, Y220C); assay: as above; assay type: biochemical; settings: multiple ratio of EC50 of the compound to the reference compound, DNA binding test
T2 construct: a truncated mutant containing only amino acids 94-312 of p53; made in house; host or cells: E. coli
Method: as §1

NUGC-3 cells = assay: NUGC-3 cell proliferation assay (CTG); assay type: cell-based, human; settings: for Compound GI50 (nM)/Reference compound GI50 (nM): multiple ratio of GI50 of the compound to the reference compound; for GI50: 6 days, CTG
Method: In order to detect the inhibitory effect of the aforementioned compounds on the proliferation ability of NUGC-3 cells, 250 NUGC-3 cells (Nanjing Cobioer Biosciences Co., Ltd., CBP60492) were seeded into a 384-well plate (Corning 3765), 35 μL per well, and incubated overnight in a constant temperature incubator at 37° C. and 5% CO2. Then, 40 nL of the compound was added to the 384-well plate using an Echo 655 Liquid Handler, with a maximum final concentration of 10 μM, 1:3 serial dilutions, and a total of 10 doses. The culture was performed at 37° C. and 5% CO2 for 6 days. The plate was taken out from the incubator and equilibrated at room temperature for 10 minutes. 20 μL of CTG (Promage G7572) was added to each well of the plate according to the platemap. The plate was centrifuged at 1000 rpm for 1 min. The lysis of cells was induced by mixing on a shaker for 2 min. The plate was centrifuged at 1000 rpm for 1 min. Incubation was performed at room temperature for 10 min to stabilize luminescence signals. Luminescence values were recorded by Envision (PerkinElmer 2105-0020). GraphPad 9.0 was used to fit the inhibition rate and compound concentration into a nonlinear regression curve (dose response-variable slope) to calculate GI50, inhibition rate={1−(A−B)/(C−B)}*100%, A=signal value of compound; B=average signal of blank control; C=average signal of negative control (wherein negative control was 0.1% DMSO).

SMILES | EC50 (p53 Y220C [1]) [nM] | Compound EC50 (nM)/Reference compound EC50 (nM) (p53 Y220C [2]) | Compound GI50 (nM)/Reference compound GI50 (nM) (NUGC-3 cells) | GI50 (NUGC-3 cells; Homo sapiens, NUGC-3, 144 h) [µM] | GI50 (NUGC-3 cells) [µM]
COc1cc(S(=N)(=O)C2CC2)ccc1NCC#Cc1cc2c(NC3CCN(C)CC3F)cccc2n1CC(F)(F)F (single isomer, unassigned) [Compound 39c] | < 100 | B (B: EC50 of the reference compound<EC50 of the compound≤3.0*EC50 of the reference compound) | A (A: GI50 of the compound ≤ GI50 of the reference compound) | – | –
CN1CCC(Nc2cccn3c(CC(F)(F)F)c(-c4noc(CNC(=O)c5ccn(C(C)(C)C)c5)n4)nc23)CC1 [Compound 17] | 500 to 1000 | C (C: EC50 of the compound≥3*EC50 of the reference compound) | C (C: GI50 of the compound ≥ 3 * GI50 of the reference compound) | – | –
CN1CCC(Nc2cccn3c(CC(F)(F)F)c(-c4nnc(CNC(=O)c5cnn(C6CCOC6)c5)s4)nc23)CC1 (centres unmarked) [Compound 22] | 100 to 500 | B (B: EC50 of the reference compound<EC50 of the compound≤3.0*EC50 of the reference compound) | C (C: GI50 of the compound ≥ 3 * GI50 of the reference compound) | ≥ 5 | –
CNC(=O)c1ccc(NCC#Cc2nc3c(NC4CCC(N5CC6(COC6)C5)CC4F)cccn3c2CC(F)(F)F)c(OC)c1 (single isomer, unassigned) [Compound 35-6f] | < 100 | B (B: EC50 of the reference compound<EC50 of the compound≤3.0*EC50 of the reference compound) | C (C: GI50 of the compound ≥ 3 * GI50 of the reference compound) | – | 1 to 5
CNC(=O)c1ccc(NCC#Cc2nc3c(NC4CCC(N5CC6CCC(C5)O6)CC4)cccn3c2CC(F)(F)F)c(OC)c1 (centres unmarked) [Compound 34] | 100 to 500 | C (C: EC50 of the compound≥3*EC50 of the reference compound) | C (C: GI50 of the compound ≥ 3 * GI50 of the reference compound) | – | –
CNC(=O)c1ccc(NCc2nnc(-c3nc4c(NC5CCN(C)CC5)cccn4c3CC(F)(F)F)s2)c(OC)c1 [Compound 18] | 100 to 500 | C (C: EC50 of the compound≥3*EC50 of the reference compound) | C (C: GI50 of the compound ≥ 3 * GI50 of the reference compound) | 1 to 5 | –
COCCNC(=O)c1ccc(NCC#Cc2nc3c(NC4CCN(C)CC4)cccn3c2CC(F)(F)F)c(OC)c1 [Compound 30] | 100 to 500 | C (C: EC50 of the compound≥3*EC50 of the reference compound) | C (C: GI50 of the compound ≥ 3 * GI50 of the reference compound) | 1 to 5 | –
CNC(=O)c1ccc(NCC#Cc2nc3c(N[C@@H]4CCN(CCOC)C[C@@H]4F)cccn3c2CC(F)(F)F)c(OC)c1 [Compound 21] | 100 to 500 | C (C: EC50 of the compound≥3*EC50 of the reference compound) | C (C: GI50 of the compound ≥ 3 * GI50 of the reference compound) | 1 to 5 | –
CNC(=O)c1ccc(NCC#Cc2nc3c(NC4CC[C@@H](N5CCC5)C[C@@H]4F)cccn3c2CC(F)(F)F)c(OC)c1 (some centres unmarked) [Compound 40] | < 100 | B (B: EC50 of the reference compound<EC50 of the compound≤3.0*EC50 of the reference compound) | B (B: GI50 of the reference compound < GI50 of the compound ≤ 3.0 * GI50 of the reference compound) | < 1 | –
CNC(=O)c1ccc(NCC#Cc2nc3c(NC4CCC(N5CC6(COC6)C5)CC4F)cccn3c2CC(F)(F)F)c(OC)c1 (single isomer, unassigned) [Compound 35-6g] | 100 to 500 | C (C: EC50 of the compound≥3*EC50 of the reference compound) | C (C: GI50 of the compound ≥ 3 * GI50 of the reference compound) | – | ≥ 5
[2H]C([2H])([2H])NC(=O)c1ccc(NCC#Cc2cc3c(NC4CCC(N5CC6(COC6)C5)CC4F)cccn3c2CC(F)(F)F)c(OCF)c1 (centres unmarked) [Compound 78d] | < 100 | A (A: EC50 of the compound≤EC50 of the reference compound) | A (A: GI50 of the compound ≤ GI50 of the reference compound) | < 1 | –
CNC(=O)c1ccc(NCC#Cc2nc3c(NC4CCC(N(C)[C@@H]5CCOC5)CC4)cccn3c2CC(F)(F)F)c(OC)c1 (some centres unmarked) [Compound 33] | 100 to 500 | C (C: EC50 of the compound≥3*EC50 of the reference compound) | C (C: GI50 of the compound ≥ 3 * GI50 of the reference compound) | – | –
COc1cc(C#N)ccc1NCC#Cc1nc2c(NC3CCN(C)CC3)cccn2c1CC(F)(F)F [Compound 11] | 100 to 500 | B (B: EC50 of the reference compound<EC50 of the compound≤3.0*EC50 of the reference compound) | C (C: GI50 of the compound ≥ 3 * GI50 of the reference compound) | – | –
COc1cc(P(C)(C)=O)ccc1NCC#Cc1nc2c(N[C@@H]3CCN(C)C[C@@H]3F)cccn2c1CC(F)(F)F [Compound 14] | 100 to 500 | B (B: EC50 of the reference compound<EC50 of the compound≤3.0*EC50 of the reference compound) | B (B: GI50 of the reference compound < GI50 of the compound ≤ 3.0 * GI50 of the reference compound) | 1 to 5 | –
COc1cc(-c2nccs2)ccc1NCC#Cc1nc2c(NC3CCN(C)CC3)cccn2c1CC(F)(F)F [Compound 16] | 100 to 500 | C (C: EC50 of the compound≥3*EC50 of the reference compound) | C (C: GI50 of the compound ≥ 3 * GI50 of the reference compound) | ≥ 5 | –
CNC(=O)c1cc(OC)c(NCC#Cc2nc3c(N[C@H]4CC[C@H](N5CC6(COC6)C5)CC4)cccn3c2CC(F)(F)F)cc1F [Compound 27] | < 100 | B (B: EC50 of the reference compound<EC50 of the compound≤3.0*EC50 of the reference compound) | C (C: GI50 of the compound ≥ 3 * GI50 of the reference compound) | – | –
CNC(=O)c1ccc(NCC#Cc2nc3c(NC4CCN(CC(O)COC)CC4)cccn3c2CC(F)(F)F)c(OC)c1 (centres unmarked) [Compound 7] | 100 to 500 | C (C: EC50 of the compound≥3*EC50 of the reference compound) | C (C: GI50 of the compound ≥ 3 * GI50 of the reference compound) | 1 to 5 | –
